Measured values reported in article PMC10180197, “Novel Pyrimidine Derivatives as Antioxidant and Anticancer Agents: Design, Synthesis and Molecular Modeling Studies” (Molecules, 2023).
Where two headings read alike, the source gives them in different places.

Columns and labels:
[1] = Inhibition of AAPH induced linoleic acid peroxidation
Experimental: For the lipid peroxidation study, 2,2′-Azobis(2-methylpropionamidine) dihydrochloride (AAPH) was used as the generator of peroxy radicals and sodium linoleate as the substrate that undergoes peroxidation. The conversion of linoleic acid to 13-hydroperoxy-linoleic acid was recorded at 234 nm. The change of absorbance reflects the possible antioxidant activity of the tested compounds, in comparison with the reference compound, Trolox.
In vitro study was performed as reported previously by our group. AAPH was used as a free radical generator of alkyl peroxyl radicals. For this experimental procedure, 10 μL of the tested compound (from the stock solution), 10 μL sodium linoleate (16 mM), 50 μL AAPH (40 mM) and 930 μL phosphate-buffered solution (pH 7.4) were added in a UV cuvette (1 mL), pre thermostated at 37 °C. The ability of the compounds to prevent the oxidation of linoleic acid from alkyl peroxyl radicals was evaluated by recording the change of absorbance at 234 nm, due to the conversion of linoleic acid to 13-hydroperoxy-linoleic acid. Trolox was used as the reference.

[2] = target: T1, soybean lipoxygenase (Glycine max, UniProt P08170); assay: Inhibition of soybean lipoxygenase; assay type: biochemical; conditions: for inhibition at 100 µM: read-out: LOX % Inhibition 100 μM; for IC50: cells of the mixed column with μM, read-out: LOX IC50
T1 construct: purchased Sigma Aldrich- Merck KGaA, Darmstadt, Germany
T1 sequence (P08170 1-839): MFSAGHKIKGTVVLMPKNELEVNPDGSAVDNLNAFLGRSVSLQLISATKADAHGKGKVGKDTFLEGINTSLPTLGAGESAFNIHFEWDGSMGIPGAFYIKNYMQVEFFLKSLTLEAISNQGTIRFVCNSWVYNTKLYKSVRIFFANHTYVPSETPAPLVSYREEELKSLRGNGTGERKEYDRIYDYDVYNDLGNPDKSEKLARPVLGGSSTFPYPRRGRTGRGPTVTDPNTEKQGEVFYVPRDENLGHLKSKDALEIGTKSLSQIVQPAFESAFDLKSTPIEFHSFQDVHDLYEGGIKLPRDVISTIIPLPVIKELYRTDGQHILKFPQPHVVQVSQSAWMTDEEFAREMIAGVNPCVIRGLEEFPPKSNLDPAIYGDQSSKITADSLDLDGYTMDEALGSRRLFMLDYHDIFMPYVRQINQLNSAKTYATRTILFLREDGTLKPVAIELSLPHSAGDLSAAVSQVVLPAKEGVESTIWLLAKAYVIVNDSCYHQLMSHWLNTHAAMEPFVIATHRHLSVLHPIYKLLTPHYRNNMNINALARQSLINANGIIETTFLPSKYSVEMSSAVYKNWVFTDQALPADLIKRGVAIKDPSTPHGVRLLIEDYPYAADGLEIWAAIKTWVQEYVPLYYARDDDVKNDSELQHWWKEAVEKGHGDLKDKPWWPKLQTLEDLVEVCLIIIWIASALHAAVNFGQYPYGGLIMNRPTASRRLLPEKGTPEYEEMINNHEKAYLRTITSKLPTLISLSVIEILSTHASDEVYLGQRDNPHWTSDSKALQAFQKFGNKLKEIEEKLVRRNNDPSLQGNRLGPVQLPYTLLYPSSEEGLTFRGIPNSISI
Text: Lipoxygenase (LOX) is the key enzyme in the biosynthesis of inflammatory mediators; thus, it is considered a target for inflammatory diseases. Soybean LOX is a plant enzyme that has been used widely as a prototype for studying the functional and structural properties of the homologous family of lipoxygenases, presenting satisfactory homology with the human 5-LOX [42]. Linoleic acid is the most common substrate in plant LOX. […] Lipophilicity is considered one of the most important parameters with regard to LOX inhibitors according to the literature.
In vitro study was performed as reported previously by our group. In this experiment, 10 μL of the tested compound (from the stock solution) were incubated with 100 μL sodium linoleate (diluted in Tris buffer), 200 μL LOX solution (1:9 × 10^−4 w/v in saline) and 690 μL Tris buffer (pH 9.0) at room temperature. The absorbance was measured at 234 nm, where the change of absorbance was recorded due to the formation of 13-hydroperoxy-linoleic acid. […] In order to determine the IC50 values, different concentrations were used.

[3] = 100 μM, cells of the mixed column without μM

SMILES | AAPH % Inhibition 100 μM [1] | inhibition at 100 µM [2, 3] | melting point | IC50 [2] | AAPH % Inhibition 100 μM ([1]; 100 µM) | LOX % Inhibition 100 μM [2, 3]
O=c1[nH]c(=S)[nH]c2nc(-c3ccc(Cl)cc3)cc(-c3ccc(Cl)cc3Cl)c12 [Compound 2h, 7-(4-chlorophenyl)-5-(2,4-dichlorophenyl)-2-thioxo-2,3-dihydropyrido [2,3-d]pyrimidin-4(1H)-one] | 99% | 27% | 274 to 276 °C | – | – | –
O=C(/C=C/c1ccccc1)c1ccccc1 [Compound 1a, (E)-1,3-diphenylprop-2-en-1-one] | 6% | 26% | – | – | – | –
O=C(/C=C/c1ccc(Cl)cc1)c1ccc(Cl)cc1 [Compound 1f, (E)-1,3-bis(4-chlorophenyl)prop-2-en-1-one] | 51% | 4% | 160 to 162 °C | – | – | –
O=c1[nH]c(=S)[nH]c2nc(-c3ccc(Cl)cc3)cc(-c3ccccc3)c12 [Compound 2b, 7-(4-chlorophenyl)-5-phenyl-2-thioxo-2,3-dihydropyrido [2,3-d]pyrimidin-4(1H)-one] | 62% | 6% | > 300 °C | – | – | –
O=C(/C=C/c1ccc(Cl)cc1Cl)c1ccccc1 [Compound 1g, (E)-3-(2,4-dichlorophenyl)-1-phenylprop-2-en-1-one] | 39% | – | 68 to 70 °C | 17 µM | – | –
O=c1[nH]c(=S)[nH]c2nc(-c3ccc(Cl)cc3)cc(-c3ccc(Cl)cc3)c12 [Compound 2f, 5,7-bis(4-chlorophenyl)-2-thioxo-2,3-dihydropyrido [2,3-d]pyrimidin-4(1H)-one] | no activity | – | > 300 °C | 47.5 µM | no | –
O=C(/C=C/c1cccs1)c1ccc(Cl)cc1 [Compound 1d, (E)-1-(4-chlorophenyl)-3-(thiophen-2-yl)prop-2-en-1-one] | 8% | – | – | 72.5 µM | – | –
O=c1[nH]c(=S)[nH]c2nc(-c3ccccc3)cc(-c3ccc(Cl)cc3)c12 [Compound 2e, 5-(4-chlorophenyl)-7-phenyl-2-thioxo-2,3-dihydropyrido [2,3-d]pyrimidin-4(1H)-one] | 33% | – | > 300 °C | 76 µM | – | –
O=c1[nH]c(=S)[nH]c2nc(-c3ccc(Cl)cc3)cc(-c3cccs3)c12 [Compound 2d, 7-(4-chlorophenyl)-5-(thiophen-2-yl)-2-thioxo-2,3-dihydropyrido [2,3-d]pyrimidin-4(1H)-one] | 62% | – | > 300 °C | 70 µM | – | –
O=C(/C=C/c1ccc(Cl)cc1Cl)c1ccc(Cl)cc1 [Compound 1h, (E)-1-(4-chlorophenyl)-3-(2,4-dichlorophenyl)prop-2-en-1-one] | 2% | – | – | – | – | no
O=c1[nH]c(=S)[nH]c2nc(-c3ccccc3)cc(-c3ccccc3)c12 [Compound 2a, 5,7-diphenyl-2-thioxo-2,3-dihydropyrido [2,3-d]pyrimidin-4(1H)-one] | 52% | – | > 300 °C | 42 µM | – | –
O=C(/C=C/c1ccccc1)c1ccc(Cl)cc1 [Compound 1b, (E)-1-(4-chlorophenyl)-3-phenylprop-2-en-1-one] | 51% | 39% | – | – | – | –
O=c1[nH]c(=S)[nH]c2nc(-c3ccccc3)cc(-c3cccs3)c12 [Compound 2c, 7-phenyl-5-(thiophen-2-yl)-2-thioxo-2,3-dihydropyrido [2,3-d]pyrimidin-4(1H)-one] | 52% | – | 260 to 262 °C | 68.5 µM | – | –
O=C(/C=C/c1ccc(Cl)cc1)c1ccccc1 [Compound 1e, (E)-3-(4-chlorophenyl)-1-phenylprop-2-en-1-one] | 4% | – | – | 55.5 µM | – | –
O=c1[nH]c(=S)[nH]c2nc(-c3ccccc3)cc(-c3ccc(Cl)cc3Cl)c12 [Compound 2g, 5-(2,4-dichlorophenyl)-7-phenyl-2-thioxo-2,3-dihydropyrido [2,3-d]pyrimidin-4(1H)-one] | 95% | – | > 300 °C | 54 µM | – | –
